Test results reported in US20260166128A1, “HUMAN AMYLIN ANALOG, AND DERIVATIVE THEREOF AND USE THEREOF” (priority 2022, published 2026).
Numbered stars: 1 amine (or outer) side, 2 acyl side, 3 side chain; on linkers, the order of the positions; unused ones are H or OH. Bridge positions count the residues as written; N and C are the ends. Square brackets hold non-standard residues; d marks the D form. Side chains are listed from the residue outwards. Peptide text beside a SMILES is read from it. * marks the point of attachment. C20 diacid = O=C(O)CCCCCCCCCCCCCCCCCCC(=O)*; γGlu = O=C(O)[C@H](CCC(=O)[*:2])N[*:1]; Aad = N[C@@H](CCCC(=O)O)C(=O)O; Orn = NCCC[C@H](N)C(=O)O; Dab = NCC[C@H](N)C(=O)O; Dap = NC[C@H](N)C(=O)O

Legend:
human amylin receptor = target: T1, human amylin receptor (Homo sapiens, UniProt O60896+P30988); assay: Luciferase assay of amylin derivatives in amylin receptor/CRE-luc CHO cell line; type: cell-based; conditions: CHO-K1/Ga15/AMY3 CRE-luc cells, 24 hours incubation, F12 medium containing 10% FBS; read-out: EC50
T1 construct: host or cells: CHO-K1/Ga15/AMY3 cells, further stably transfected with a CRE-luciferase plasmid
T1 sequence (P30988 25-474): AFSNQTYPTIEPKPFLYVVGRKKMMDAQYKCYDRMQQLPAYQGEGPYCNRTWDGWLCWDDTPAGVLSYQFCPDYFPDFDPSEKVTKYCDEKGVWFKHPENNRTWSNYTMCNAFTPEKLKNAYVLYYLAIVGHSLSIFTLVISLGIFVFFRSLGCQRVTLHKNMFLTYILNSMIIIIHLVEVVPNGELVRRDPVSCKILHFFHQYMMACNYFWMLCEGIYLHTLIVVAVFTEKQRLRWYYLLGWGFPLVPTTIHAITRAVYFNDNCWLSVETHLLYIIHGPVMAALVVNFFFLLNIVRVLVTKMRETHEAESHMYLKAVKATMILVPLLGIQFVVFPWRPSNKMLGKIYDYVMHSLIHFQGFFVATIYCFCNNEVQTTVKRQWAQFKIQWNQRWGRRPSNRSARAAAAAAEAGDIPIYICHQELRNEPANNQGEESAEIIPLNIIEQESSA
T1 sequence (O60896 24-148 partner): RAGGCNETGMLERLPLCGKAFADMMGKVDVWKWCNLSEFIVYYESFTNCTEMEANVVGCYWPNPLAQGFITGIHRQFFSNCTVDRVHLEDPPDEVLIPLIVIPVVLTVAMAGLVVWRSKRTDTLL
Description: The experiment was intended to detect the activity or efficacy of the amylin derivatives on a human amylin receptor in vitro by luciferase assay.
50 μL of growth medium (F12 medium containing 10% FBS) was added into each well of a white 96-well plate, and the stably transfected amylin/CRE-lue CHO cells were inoculated into the white 96-well plate at a density of about 20,000 cells/well for activity determination.

[1] = Freeze-thaw stability of derivatives (freeze-thaw yield by liquid chromatography); type: physicochemical; conditions: for Dissolution property: appearance after dissolution at 0.2 mg/ml in 20 mM phosphate buffer solution (PB) (pH 7.0); for Freeze storage property: appearance after overnight storage at −20° C. and thawing to room temperature, 0.2 mg/ml in 20 mM PB (pH 7.0); for Freeze storage yield: concentration of polypeptide after freezing and thawing / concentration before, by liquid chromatography, −20° C. overnight
How it was run: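 Lyophilised peptide derivative dissolved at 0.2 mg/ml in 20 mM phosphate buffer, pH 7.0, frozen overnight at −20° C, then thawed at room temperature. Peptide concentration before and after freeze-thaw measured by reversed-phase HPLC on centrifuged supernatant; yield = post-thaw/pre-thaw concentration.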

| SMILES | EC50 (human amylin receptor) | Dissolution property [1] | Freeze storage property [1] | Freeze storage yield [1] |
| --- | --- | --- | --- | --- |
| CC[C@H](C)[C@H](NC(=O)[C@@H]1CCCN1C(=O)[C@H](CCCCNC(=O)CC[C@H](NC(=O)CCCCCCCCCCCCCCCCCCC(=O)O)C(=O)O)NC(=O)[C@H](CC(C)C)NC(=O)[C@H](CC(N)=O)NC(=O)[C@H](CC(N)=O)NC(=O)[C@H](CO)NC(=O)[C@H](CO)NC(=O)[C@H](Cc1c[nH]cn1)NC(=O)[C@H](CCCNC(=N)N)NC(=O)[C@H](CC(C)C)NC(=O)[C@H](Cc1ccccc1)NC(=O)[C@H](CCCC(=O)O)NC(=O)[C@H](C)NC(=O)[C@H](CC(C)C)NC(=O)[C@H](CCCNC(=N)N)NC(=O)[C@H](CCC(N)=O)NC(=O)[C@@H](NC(=O)[C@H](C)NC(=O)[C@@H]1CSSC[C@H](NC(=O)[C@@H](N)CCCNC(=N)N)C(=O)N[C@@H](CC(N)=O)C(=O)N[C@@H]([C@@H](C)O)C(=O)N[C@@H](C)C(=O)N[C@@H]([C@@H](C)O)C(=O)N1)[C@@H](C)O)C(=O)N[C@@H](CC(C)C)C(=O)N1CCC[C@H]1C(=O)N1CCC[C@H]1C(=O)N[C@H](C(=O)N[C@@H](CC(N)=O)C(=O)N[C@H](C(=O)NCC(=O)N[C@@H](CO)C(=O)N[C@@H](CC(N)=O)C(=O)N[C@H](C(=O)N1CCC[C@H]1C(N)=O)[C@@H](C)O)C(C)C)[C@@H](C)O [PD043] (H-RCNTATCATQRLA[Aad]FLRHSSNNLK([γGlu-C20 diacid])PILPPTNVGSNTP-NH2; disulfide 2-7 (inferred); N-terminus assumed) | 1.13 nM | Clear | Clear | 49.45% |
| CC[C@H](C)[C@H](NC(=O)[C@@H]1CCCN1C(=O)[C@H](CCCCNC(=O)CC[C@H](NC(=O)CCCCCCCCCCCCCCCCCCC(=O)O)C(=O)O)NC(=O)[C@H](CC(C)C)NC(=O)[C@H](CC(N)=O)NC(=O)[C@H](CC(N)=O)NC(=O)[C@H](CO)NC(=O)[C@H](CO)NC(=O)[C@H](Cc1c[nH]cn1)NC(=O)[C@H](CCCNC(=N)N)NC(=O)[C@H](CC(C)C)NC(=O)[C@H](Cc1ccccc1)NC(=O)[C@H](CCN)NC(=O)[C@H](C)NC(=O)[C@H](CC(C)C)NC(=O)[C@H](CCCNC(=N)N)NC(=O)[C@H](CCC(N)=O)NC(=O)[C@@H](NC(=O)[C@H](C)NC(=O)[C@@H]1CSSC[C@H](NC(=O)[C@@H](N)CCCNC(=N)N)C(=O)N[C@@H](CC(N)=O)C(=O)N[C@@H]([C@@H](C)O)C(=O)N[C@@H](C)C(=O)N[C@@H]([C@@H](C)O)C(=O)N1)[C@@H](C)O)C(=O)N[C@@H](CC(C)C)C(=O)N1CCC[C@H]1C(=O)N1CCC[C@H]1C(=O)N[C@H](C(=O)N[C@@H](CC(N)=O)C(=O)N[C@H](C(=O)NCC(=O)N[C@@H](CO)C(=O)N[C@@H](CC(N)=O)C(=O)N[C@H](C(=O)N1CCC[C@H]1C(N)=O)[C@@H](C)O)C(C)C)[C@@H](C)O [PD044] (H-RCNTATCATQRLA[Dab]FLRHSSNNLK([γGlu-C20 diacid])PILPPTNVGSNTP-NH2; disulfide 2-7 (inferred)) | 2.62 nM | Clear | Clear | 84.90% |
| CC[C@H](C)[C@H](NC(=O)[C@@H]1CCCN1C(=O)[C@H](CCCCNC(=O)CC[C@H](NC(=O)CCCCCCCCCCCCCCCCCCC(=O)O)C(=O)O)NC(=O)[C@H](CC(C)C)NC(=O)[C@H](CC(N)=O)NC(=O)[C@H](CC(N)=O)NC(=O)[C@H](CO)NC(=O)[C@H](CO)NC(=O)[C@H](Cc1c[nH]cn1)NC(=O)[C@H](CCCNC(=N)N)NC(=O)[C@H](CC(C)C)NC(=O)[C@H](Cc1ccccc1)NC(=O)[C@H](CN)NC(=O)[C@H](C)NC(=O)[C@H](CC(C)C)NC(=O)[C@H](CCCNC(=N)N)NC(=O)[C@H](CCC(N)=O)NC(=O)[C@@H](NC(=O)[C@H](C)NC(=O)[C@@H]1CSSC[C@H](NC(=O)[C@@H](N)CCCNC(=N)N)C(=O)N[C@@H](CC(N)=O)C(=O)N[C@@H]([C@@H](C)O)C(=O)N[C@@H](C)C(=O)N[C@@H]([C@@H](C)O)C(=O)N1)[C@@H](C)O)C(=O)N[C@@H](CC(C)C)C(=O)N1CCC[C@H]1C(=O)N1CCC[C@H]1C(=O)N[C@H](C(=O)N[C@@H](CC(N)=O)C(=O)N[C@H](C(=O)NCC(=O)N[C@@H](CO)C(=O)N[C@@H](CC(N)=O)C(=O)N[C@H](C(=O)N1CCC[C@H]1C(N)=O)[C@@H](C)O)C(C)C)[C@@H](C)O [PD045] (H-RCNTATCATQRLA[Dap]FLRHSSNNLK([γGlu-C20 diacid])PILPPTNVGSNTP-NH2; disulfide 2-7 (inferred); N-terminus assumed) | 0.364 nM | Clear | Clear | 95.59% |
| CC[C@H](C)[C@H](NC(=O)[C@@H]1CCCN1C(=O)[C@H](CCCCNC(=O)CC[C@H](NC(=O)CCCCCCCCCCCCCCCCCCC(=O)O)C(=O)O)NC(=O)[C@H](CC(C)C)NC(=O)[C@H](CC(N)=O)NC(=O)[C@H](CC(N)=O)NC(=O)[C@H](CO)NC(=O)[C@H](CO)NC(=O)[C@H](Cc1c[nH]cn1)NC(=O)[C@H](CCCN)NC(=O)[C@H](CC(C)C)NC(=O)[C@H](Cc1ccccc1)NC(=O)[C@H](CCC(=O)O)NC(=O)[C@H](C)NC(=O)[C@H](CC(C)C)NC(=O)[C@H](CCCNC(=N)N)NC(=O)[C@H](CCC(N)=O)NC(=O)[C@@H](NC(=O)[C@H](C)NC(=O)[C@@H]1CSSC[C@H](NC(=O)[C@@H](N)CCCNC(=N)N)C(=O)N[C@@H](CC(N)=O)C(=O)N[C@@H]([C@@H](C)O)C(=O)N[C@@H](C)C(=O)N[C@@H]([C@@H](C)O)C(=O)N1)[C@@H](C)O)C(=O)N[C@@H](CC(C)C)C(=O)N1CCC[C@H]1C(=O)N1CCC[C@H]1C(=O)N[C@H](C(=O)N[C@@H](CC(N)=O)C(=O)N[C@H](C(=O)NCC(=O)N[C@@H](CO)C(=O)N[C@@H](CC(N)=O)C(=O)N[C@H](C(=O)N1CCC[C@H]1C(N)=O)[C@@H](C)O)C(C)C)[C@@H](C)O [PD046] (H-RCNTATCATQRLAEFL[Orn]HSSNNLK([γGlu-C20 diacid])PILPPTNVGSNTP-NH2; disulfide 2-7 (inferred); N-terminus assumed) | 1.68 nM | Clear | Clear | 101.35% |
| CC[C@H](C)[C@H](NC(=O)[C@@H]1CCCN1C(=O)[C@H](CCCCNC(=O)CC[C@H](NC(=O)CCCCCCCCCCCCCCCCCCC(=O)O)C(=O)O)NC(=O)[C@H](CC(C)C)NC(=O)[C@H](CC(N)=O)NC(=O)[C@H](CC(N)=O)NC(=O)[C@H](CO)NC(=O)[C@H](CO)NC(=O)[C@H](Cc1c[nH]cn1)NC(=O)[C@H](CCCNC(=N)N)NC(=O)[C@H](CC(C)C)NC(=O)[C@H](Cc1ccccc1)NC(=O)[C@H](CCC(=O)O)NC(=O)[C@H](C)NC(=O)[C@H](CC(C)C)NC(=O)[C@H](CCCNC(=N)N)NC(=O)[C@H](CCC(N)=O)NC(=O)[C@@H](NC(=O)[C@H](C)NC(=O)[C@@H]1CSSC[C@H](NC(=O)[C@@H](N)CCCNC(=N)N)C(=O)N[C@@H](CC(N)=O)C(=O)N[C@@H]([C@@H](C)O)C(=O)N[C@@H](C)C(=O)N[C@@H]([C@@H](C)O)C(=O)N1)[C@@H](C)O)C(=O)N[C@@H](CC(C)C)C(=O)N1CCC[C@H]1C(=O)N1CCC[C@H]1C(=O)N[C@H](C(=O)N[C@@H](CC(N)=O)C(=O)N[C@H](C(=O)NCC(=O)N[C@@H](CO)C(=O)N[C@@H](CC(N)=O)C(=O)N[C@H](C(=O)N1CCC[C@H]1C(N)=O)[C@@H](C)O)C(C)C)[C@@H](C)O [PD047] (H-RCNTATCATQRLAEFLRHSSNNLK([γGlu-C20 diacid])PILPPTNVGSNTP-NH2; disulfide 2-7 (inferred); N-terminus assumed) | 0.073 nM | – | – | 0.00% |
